Data as given in ChEMBL document CHEMBL1201862, “PubChem BioAssay data set” (2004).
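Cultured in 96-well plates, cells were exposed to test compound for 48 hours across five concentrations. Abbreviation: GI50, concentration required for 50% inhibition of growth.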 Activity calls are given as the source filed them. No stated cut-off is given here; in the data, active = GI50 up to about 1.1 µM and inactive = higher.

Assays:
Test in all cases: NCI anticancer screen, dose series, 48 h
TK-10 = test system: TK-10
SW-620 = test system: SW-620
UO-31 = test system: UO-31
UACC-257 = test system: UACC-257
COLO 205 = test system: COLO 205
Hs-578T = test system: Hs-578T
SK-MEL-2 = test system: SK-MEL-2
M14 = test system: M14
NCI-H226 = test system: NCI-H226
NCI/ADR-RES = test system: NCI/ADR-RES
HCC 2998 = test system: HCC 2998
SNB-75 = test system: SNB-75
A498 = test system: A498
OVCAR-5 = test system: OVCAR-5
HL-60 = test system: HL-60
DU-145 = test system: DU-145
RXF 393 = test system: RXF 393
HCT-116 = test system: HCT-116
MDA-N = test system: MDA-N
786-0 = test system: 786-0

Measured: GI50

N#C/C(=C\c1ccc2[nH]ccc2c1)C(=O)c1ccc(O)c(O)c1
inactive: TK-10 > 72.1 µM | SW-620 55.2 µM | UO-31 45 µM | UACC-257 > 80.5 µM | COLO 205 > 67.8 µM | Hs-578T 44.2 µM | SK-MEL-2 > 78.9 µM | M14 > 63.1 µM | NCI-H226 > 71.3 µM | NCI/ADR-RES 49.4 µM | HCC 2998 66.7 µM | SNB-75 > 100 µM | A498 > 100 µM | OVCAR-5 > 73.8 µM | HL-60 27.5 µM | DU-145 45.7 µM | RXF 393 > 94 µM | HCT-116 > 53.6 µM | MDA-N > 100 µM | 786-0 43 µM

O=C(NCC(=O)N1CCCC1C(=O)OC(=O)C1CCCN1C(=O)CNC(=O)OCc1ccccc1)OCc1ccccc1 (stereo not given)
inactive: TK-10 17.3 µM | SW-620 76.9 µM | UO-31 65.6 µM | UACC-257 16.7 µM | COLO 205 18.7 µM | Hs-578T > 100 µM | SK-MEL-2 20.4 µM | M14 17.7 µM | NCI-H226 26.1 µM | NCI/ADR-RES > 100 µM | HCC 2998 32.7 µM | SNB-75 14.9 µM | A498 73.1 µM | OVCAR-5 29.1 µM | HL-60 46.9 µM | DU-145 52 µM | RXF 393 24 µM | HCT-116 32.9 µM | MDA-N 25.3 µM | 786-0 47.6 µM

CC(C)(C)[Si](C)(C)OC1CCOC1(O)c1ccccn1 (stereo not given)
inactive: TK-10 > 100 µM | SW-620 > 100 µM | UO-31 > 100 µM | UACC-257 > 100 µM | COLO 205 > 100 µM | Hs-578T > 100 µM | SK-MEL-2 > 100 µM | M14 > 100 µM | NCI-H226 > 100 µM | NCI/ADR-RES > 100 µM | HCC 2998 > 100 µM | SNB-75 > 100 µM | A498 > 100 µM | OVCAR-5 > 100 µM | HL-60 32 µM | DU-145 > 100 µM | RXF 393 > 100 µM | HCT-116 > 100 µM | MDA-N > 100 µM | 786-0 > 100 µM

CCC[C@H](N[S+]([O-])c1ccc(C)cc1)C(C(=O)OCC)=C(c1ccccc1)c1ccccc1 (stereo not given in full)
inactive: TK-10 28.6 µM | SW-620 57.4 µM | UO-31 14.8 µM | UACC-257 16.1 µM | COLO 205 22.2 µM | Hs-578T 25.8 µM | SK-MEL-2 14.5 µM | M14 22 µM | NCI-H226 26.1 µM | NCI/ADR-RES 27.7 µM | HCC 2998 3.13 µM | SNB-75 17.8 µM | A498 19.7 µM | OVCAR-5 14.5 µM | HL-60 21.4 µM | DU-145 18.9 µM | RXF 393 14.5 µM | HCT-116 14.1 µM | MDA-N 20.8 µM | 786-0 18.1 µM

Cc1cc(NC2=CC(=O)C(=O)c3ccccc32)no1
inactive: TK-10 26.1 µM | SW-620 4.94 µM | UO-31 7.94 µM | UACC-257 6.92 µM | COLO 205 16.1 µM | Hs-578T 9.4 µM | SK-MEL-2 4.75 µM | M14 14.8 µM | NCI-H226 17.6 µM | NCI/ADR-RES 3.87 µM | HCC 2998 20.7 µM | SNB-75 9.44 µM | A498 18.7 µM | OVCAR-5 5.5 µM | HL-60 6.22 µM | DU-145 16.4 µM | RXF 393 15.1 µM | HCT-116 14.7 µM | MDA-N 1.85 µM | 786-0 15.1 µM

C[C@]12C=CC(=O)C=C1CC[C@@H]1[C@@H]2C(=O)C[C@@]2(C)[C@H]1CC[C@]2(O)C(=O)CO [PREDNISONE]
inactive: TK-10 > 100 µM | SW-620 > 100 µM | UO-31 > 100 µM | UACC-257 > 100 µM | COLO 205 > 100 µM | Hs-578T > 100 µM | SK-MEL-2 > 100 µM | M14 > 100 µM | NCI-H226 > 100 µM | NCI/ADR-RES > 100 µM | HCC 2998 > 100 µM | SNB-75 > 100 µM | A498 > 100 µM | OVCAR-5 > 100 µM | HL-60 > 100 µM | DU-145 > 100 µM | RXF 393 > 100 µM | HCT-116 59.8 µM | MDA-N > 100 µM | 786-0 > 100 µM

CC(C)(CN1CCCCC1)C(=O)CC(SCCS(=O)(=O)O)c1ccc(Cl)cc1 (stereo not given)
inactive: TK-10 6.32 µM | SW-620 4.1 µM | UO-31 4.86 µM | UACC-257 6.67 µM | COLO 205 2.86 µM | Hs-578T 3.2 µM | SK-MEL-2 2.22 µM | M14 3.19 µM | NCI-H226 12 µM | NCI/ADR-RES 5.97 µM | HCC 2998 12.3 µM | SNB-75 4.32 µM | A498 4.26 µM | OVCAR-5 1.86 µM | HL-60 6.18 µM | DU-145 9.75 µM | RXF 393 3.1 µM | HCT-116 3.03 µM | MDA-N 2.81 µM | 786-0 3.31 µM

CSc1ccc(NC(=O)Nc2cc(C)ccn2)cc1
inactive: TK-10 > 100 µM | SW-620 > 100 µM | UO-31 > 100 µM | UACC-257 > 100 µM | COLO 205 > 100 µM | Hs-578T > 100 µM | SK-MEL-2 > 100 µM | M14 > 100 µM | NCI-H226 > 100 µM | NCI/ADR-RES > 100 µM | HCC 2998 91.4 µM | SNB-75 > 100 µM | A498 > 100 µM | OVCAR-5 > 100 µM | HL-60 > 100 µM | DU-145 > 100 µM | RXF 393 > 100 µM | HCT-116 > 100 µM | MDA-N > 100 µM | 786-0 > 100 µM

C(=N/c1ccccc1C1SCCCS1)/c1ccccc1
inactive: TK-10 > 100 µM | SW-620 > 100 µM | UO-31 > 100 µM | UACC-257 > 100 µM | COLO 205 > 100 µM | Hs-578T > 100 µM | SK-MEL-2 > 100 µM | M14 > 100 µM | NCI-H226 > 100 µM | NCI/ADR-RES > 100 µM | HCC 2998 > 100 µM | SNB-75 > 100 µM | A498 > 100 µM | OVCAR-5 > 100 µM | HL-60 82.6 µM | DU-145 > 100 µM | RXF 393 > 100 µM | HCT-116 > 100 µM | MDA-N > 100 µM | 786-0 > 100 µM

CCC(=O)C(c1ccccc1)c1ccccn1 (stereo not given)
inactive: TK-10 > 100 µM | SW-620 > 100 µM | UO-31 > 100 µM | UACC-257 > 100 µM | COLO 205 > 100 µM | Hs-578T > 100 µM | SK-MEL-2 > 100 µM | M14 > 100 µM | NCI-H226 > 100 µM | NCI/ADR-RES > 100 µM | HCC 2998 > 100 µM | SNB-75 > 100 µM | A498 > 100 µM | OVCAR-5 > 100 µM | HL-60 > 100 µM | DU-145 > 100 µM | RXF 393 > 100 µM | HCT-116 > 100 µM | MDA-N > 100 µM | 786-0 > 100 µM

C=Cc1c(C)c(OC)cc2c1Oc1ccc(OC)c(C)c1CC2
inactive: TK-10 > 100 µM | SW-620 > 100 µM | UO-31 > 100 µM | UACC-257 43.5 µM | COLO 205 > 100 µM | Hs-578T > 100 µM | SK-MEL-2 > 100 µM | M14 > 100 µM | NCI-H226 39.9 µM | NCI/ADR-RES 49.1 µM | HCC 2998 > 100 µM | SNB-75 84.3 µM | A498 > 100 µM | OVCAR-5 > 100 µM | HL-60 > 100 µM | DU-145 > 100 µM | RXF 393 > 100 µM | HCT-116 > 100 µM | MDA-N > 100 µM | 786-0 > 100 µM

O=C(O)C(C(=O)O)P(=S)(S)c1ccccc1 (stereo not given)
inactive: TK-10 > 100 µM | SW-620 > 100 µM | UO-31 > 100 µM | UACC-257 > 100 µM | COLO 205 > 100 µM | Hs-578T > 100 µM | SK-MEL-2 > 100 µM | M14 > 100 µM | NCI-H226 > 100 µM | NCI/ADR-RES > 100 µM | HCC 2998 > 100 µM | SNB-75 > 100 µM | A498 > 100 µM | OVCAR-5 > 100 µM | HL-60 > 100 µM | DU-145 > 100 µM | RXF 393 > 100 µM | HCT-116 > 100 µM | MDA-N > 100 µM | 786-0 > 100 µM

CCCCC(=O)c1c(O)ccc2c(C)cc(=O)oc12
inactive: TK-10 > 100 µM | SW-620 > 100 µM | UO-31 24.8 µM | UACC-257 > 100 µM | COLO 205 > 100 µM | Hs-578T 29 µM | SK-MEL-2 3.14 µM | M14 > 100 µM | NCI-H226 > 100 µM | NCI/ADR-RES 55.7 µM | HCC 2998 45.8 µM | SNB-75 > 100 µM | A498 97.7 µM | OVCAR-5 > 100 µM | HL-60 > 100 µM | DU-145 64.9 µM | RXF 393 49.1 µM | HCT-116 > 100 µM | MDA-N > 100 µM | 786-0 > 100 µM

Cc1cccc2c1NC(=O)/C2=N\Nc1ccccc1[N+](=O)[O-]
inactive: TK-10 6.84 µM | SW-620 9.82 µM | UO-31 3.55 µM | UACC-257 13.8 µM | COLO 205 30.4 µM | Hs-578T 4.85 µM | SK-MEL-2 16.7 µM | M14 19.4 µM | NCI-H226 10.3 µM | NCI/ADR-RES 4.74 µM | HCC 2998 7.11 µM | SNB-75 11.1 µM | A498 19.3 µM | OVCAR-5 26.2 µM | HL-60 78.5 µM | DU-145 17.7 µM | RXF 393 3.66 µM | HCT-116 6.82 µM | MDA-N 20.1 µM | 786-0 4.27 µM
